Measured values as given in patent publication US10335382B2, “Use of hydrogen sulfide synthesis inhibitors for cancer therapy” (THE BOARD OF REGENTS OF THE UNIVERSITY OF TEXAS SYSTEM, priority 2013, dated 2019).
Entries after “also recorded” stand apart in the source; their conditions may differ.

Key:
CBS = target: T1, CBS (Homo sapiens, UniProt P35520); assay: CBS inhibitor screen: H2S production by recombinant CBS (methylene blue assay); assay type: biochemical; design: These studies used full-length human CBS enzyme; made in house; host or cells: E. coli BL21 (DE3) Codon Plus; conditions: 100 μM; homocysteine-induced H2S production; LOPAC library screen; read-out: Inhibition of CBS activity at 100 μM
T1 sequence (P35520 1-551): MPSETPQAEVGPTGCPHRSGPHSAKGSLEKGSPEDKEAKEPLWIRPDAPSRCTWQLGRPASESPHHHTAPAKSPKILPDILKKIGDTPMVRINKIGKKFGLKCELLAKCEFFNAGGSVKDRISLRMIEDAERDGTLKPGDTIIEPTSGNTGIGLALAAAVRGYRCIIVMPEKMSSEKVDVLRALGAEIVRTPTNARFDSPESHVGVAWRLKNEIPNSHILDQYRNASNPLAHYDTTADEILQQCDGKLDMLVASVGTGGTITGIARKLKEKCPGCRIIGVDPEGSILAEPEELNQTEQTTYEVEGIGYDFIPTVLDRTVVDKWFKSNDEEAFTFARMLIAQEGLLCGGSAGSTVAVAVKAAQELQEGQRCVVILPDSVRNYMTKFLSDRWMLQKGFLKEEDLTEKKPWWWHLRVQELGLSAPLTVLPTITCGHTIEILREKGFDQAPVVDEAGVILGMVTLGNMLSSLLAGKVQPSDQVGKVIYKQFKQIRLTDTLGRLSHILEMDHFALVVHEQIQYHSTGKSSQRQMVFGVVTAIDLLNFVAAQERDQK
From the text: Studies have been performed characterizing, in detail, the specificity and selectivity of all known H2S biosynthesis inhibitors, using recombinant CBS and CSE enzymes. These studies used full-length human CBS enzyme, and a colorimetric ‘capture’ reaction of the H2S produced by these enzymes, an assay generally known as the ‘methylene blue assay’. This assay is used in a 96-well plate format, as well as in combination with a second screening method based on a fluorescent dye.
Human recombinant CBS is expressed as described (Asimakopoulou et al, (2013) Br J Pharmacol. 169(4):922-32). A library of pharmacologically active compounds (e.g., LOPAC library, Sigma; 1240 compounds) is tested on homocysteine-induced H2S production. In certain aspects the assay is in a 96-well format. In certain aspects H2S production is measured by the methylene blue assay (Asimakopoulou et al., (2013) Br J Pharmacol. 169(4):922-32).
Plasmids, bacterial strains and media. E. coli BL21 (DE3) Codon Plus is used as a host strain to express recombinant human CSE or CBS. CSE cDNA was cloned into pGEX-4T3 and CBS into pGEX-Kg to create N-terminal GSH-S-transferase (GST) fusion proteins. The expression vectors were transformed and plated on LB-agar plates, supplemented with ampicillin (100 μg/mL).
The expression and purification of CSE and CBS is performed as described previously with modifications (Frank et al., (2008) Arch Biochem Biophys 470:64-72; Huang et al., (2009) J Mol Biol 396: 708-18). Briefly, BL21(DE3) Codon Plus cells containing either the expression vector pGEX-4T3/GST-CSE or pGEX-Kg/GST-CBS are grown at 37° C. and 180 r.p.m. in LB broth medium containing 100 μg/mL ampicillin to an absorption of 0.6-0.8 at 600 nm. In addition, 0.3 mM d-ALA is added to the culture containing pGEX-Kg/GST-CBS. Then protein expression is induced by addition of 0.1 mM IPTG. Cells containing pGEX-4T-3/GST-CSE are incubated overnight at 18° C., whereas cells containing pGEXKg/GST-CBS are incubated overnight at 30° C. Culture is then centrifuged at 4° C. and 5000×g for 10 min and the cell pellet was resuspended in PBS (140 mM NaCl, 2.7 mM KCl, 10 mM Na2HPO4, 1.8 mM KH2PO4, pH 7.8) and stored at −20° C. overnight. After thawing, the suspension is sonicated in lysis buffer containing PBS and protease inhibitor cocktail for GST-CSE and PBS, 5 mM DTT, 1% Triton X-100, […] and protease inhibitor cocktail for GST-CBS. After centrifugation at 4° C. for 30 min, the soluble fraction containing either the GST-CSE or the GST-CBS recombinant protein is loaded onto a GSTrap FF 1 mL affinity column that has been equilibrated with binding buffer PBS. The column was consecutively washed with five column volumes of binding buffer. Proteins attached to the column, including GST-CSE or GST-CBS recombinant proteins, are eluted with five column volumes of elution buffer (50 mM Tris-HCl, 10 mM reduced GSH, pH 8.0) and then dialysed and concentrated in 10 mM sodium phosphate buffer pH 8.2 and DTT 1 mM. The purity of the recombinant enzymes was checked by SDS-PAGE on 12% polyacrylamide gels after staining of protein bands with Coomassie Blue R-250. Protein concentration was determined using the DC protein assay kit.
H2S determination is performed according to Stipanuk and Beck ((1982) Biochem J 206:267-77) with some modifications. In the case of the CSE enzyme, an assay consist of a 100 μL reaction mixture containing 5 μg of the purified CSE enzyme, 0.01 mM PLP, 1 mM L-cys, and 50 mM sodium phosphate buffer pH 8.2. For the CBS enzyme, the reaction mixture contains the same as for the CSE plus 1 mM homocysteine. The inhibitors can be added to the reaction before L-cys is added to the solution. Reactions are initiated by transferring the reaction solutions from ice to a 37° C. shaking water bath. After incubation at 37° C. the reaction is terminated by adding 1% ZnAc to trap H2S followed by 10% TCA to precipitate proteins. […]

HCT116 colon cancer cell = HCT116 colon cancer cell proliferation (xCELLigence); assay type: cell-based, human; conditions: for inhibition at 300 µM / IC50: Homo sapiens, HCT-116; for IC50: read-out: IC50 (μM), inhibition of HCT116 colon cancer cell proliferation
Protocol: Cellular proliferation assays are conducted in HCT116 CRC cells in vitro, using the Roche XCelligence method. Concentration-response curves with the various AOAA analogs are prepared (concentration range: 1, 3, 10, 100, 300 and 600 μM). AOAA is used as the reference control, which, according to preliminary data, has an IC50 of approximately 300 μM. Control proliferation studies in the non-carcinogenic colonic epithelial cell line NCM356 are used to confirm cancer-cell selectivity. Since the NCM356 cells contain low levels of CBS, based on previous studies it is expect that AOAA (and its prodrugs) will only exert modest antiproliferative effects in these cells. Proliferation-inhibitory effects of the AOAA prodrugs in NCM356 cells indicate CBS-independent pharmacological actions. A collection of human colorectal tumor tissue samples (and surrounding non-cancerous tissue) are used to test the conversion of the AOAA prodrugs to AOAA in a number of cancer samples.
Cellular migration and invasion assays were performed as described (Chao et al. (1996) Cancer Res. 56:4811-19). Briefly, 10^5 cells were suspended in serum-free media containing 0.1% BSA and then added to 6.5 mm Transwell chambers ([…]) uncoated (migration assay) or coated with a thin layer (45 μl) of growth factor reduced matrigel (cell invasion assay). Cells were allowed to migrate toward the bottom chamber containing fibroblast (NIH-3T3 cells) conditioned media at 37° C. for 6 or 24 h for cell migration and invasion, respectively. Migrated and invaded cells were then fixed in Carson's fixative, stained in 0.33% toluidine blue and quantified by visual counting. For the HCT116-EAhy926 co-culture experiment, the cancer cell line was grown to confluence in the bottom wells of the transwell chambers and then endothelial cell migration was assessed (Coletta et al. (2012) Proc Natl Acad Sci USA. 109:9161-66). For assessment of colon cell proliferation, the xCELLigence system (Roche) was used (Szabo and Papapetropoulos (2011) Br J Pharmacol. 164:853-65).
For assessment of cell proliferation, the xCELLigence system (Roche) was used. Briefly, HCT116 cells were cultured until approximately 70% confluence. Cells were then detached by Trypsin-EDTA and resuspended in fresh culture media at a concentration of 30,000 cells/ml. 200 μl of cell suspension was added to each well (6,000 cells/well) of a E-plate 96, a specially designed 96-well microtiter plate containing interdigitated microelectrodes to non-invasively monitor the cell proliferation by measuring the relative change in the electrical impedance of the cell monolayer, a unitless parameter named cell index (CI). Cells were then treated with YD02-51 and proliferation was monitored for 48 hours.

HCT116 tumor xenografts = assay: HCT116 tumor xenograft in nude mice; assay type: in vivo, Nu/nu Balb/C female mice; conditions: 0.1, 0.5 or 1 mg/kg s.c. 6 days/week; harvest Day 28
Protocol: Nu/nu Balb/C female mice (8-10 weeks) were injected subcutaneously in the right and left dorsum (10^6 cells/side with HCT-116 cells). One week later, the mice were randomized and subcutaneous injections of phosphate buffered saline (PBS) or AOAA (9 mg/kg/day) were performed 6 days/week. Tumor diameters were measured transcutaneously using calipers and tumor volumes were calculated using the formula V=(π/6)hd^2. T-test comparisons of the tumor volumes and final weights at harvest were performed. Xenotrials with patient-derived xenografts (PTX) were performed on nu/nu mice implanted subcutaneously with a piece of Passage 2 tumor measuring 2-5 mm^3 each. When a small palpable tumor was evident at 7-10 days, the mice with tumor take were randomized and subjected to subcutaneous injection of vehicle or AOAA (9 mg/kg/day) 6 days/week. Specimens were fixed with 10% formalin and embedded in paraffin. 5 μm sections were stained with hematoxylin and eosin. Each in vivo experiment was repeated at least twice.
Tissue preparation, immunostaining of CD31, and evaluation of microvessel density with the Chakley reticle was performed as described (Chao et al. (1996) Cancer Res. 56:4811-19).
Nu/nu Balb/c female mice (8-10 weeks) were injected subcutaneously in the right and left dorsum (10^6 cells/side with HCT116 cells). One week later, the mice were randomized and subcutaneous injection of phosphate buffered saline (PBS control) or YD2-51 (0.1, 0.5 or 1 mg/kg) was performed 6 days/week. Tumor volumes and final weights at harvest (post-tumor injection Day 28) were performed and tumor weight/animal weight ratios calculated.

| SMILES | inhibition at 100 µM (CBS) [%] | inhibition at 300 µM (HCT116 colon cancer cell; HCT116) [%] | IC50 (HCT116 colon cancer cell) [µM] | further results |
| --- | --- | --- | --- | --- |
| Cc1ccc(C(=O)Nc2ccc(S(=O)(=O)O)c3cc(S(=O)(=O)O)cc(S(=O)(=O)O)c23)cc1NC(=O)c1cccc(NC(=O)Nc2cccc(C(=O)Nc3cc(C(=O)Nc4ccc(S(=O)(=O)O)c5cc(S(=O)(=O)O)cc(S(=O)(=O)O)c45)ccc3C)c2)c1 [Suramin sodium] | 57 |  |  |  |
| CN(C)[C@@H]1C(O)=C(C(N)=O)C(=O)[C@@]2(O)C(O)=C3C(=O)c4c(O)cccc4[C@@](C)(O)[C@H]3C[C@@H]12 [Tetracycline] | 43 |  |  |  |
| Cc1c(C)c2c(c(C)c1O)CCC(C)(COc1ccc(CC3SC(=O)NC3=O)cc1)O2 (stereo not shown) [Troglitazone] | 30 |  |  |  |
| COC(=O)CON [YD-1-71, aminooxyacetic acid methyl ester] |  | 80 | 181 | antiproliferative effect in HCT116 compared with parent AOAA (HCT116 colon cancer cell; HCT116): markedly enhances the antiproliferative effect; also recorded: substantially lower concentrations |
| NOCC(=O)OCc1ccccc1 [YD-2-22] |  | 91 | 159 |  |
| CC(C)(C)OC(=O)NOCC(=O)O [YD-2-23] |  | 71 | 207 |  |
| CCC(CC)OC(=O)CON [YD-2-51, pentan-3-yl 2-(aminooxy)acetate] |  |  |  | tumor cell proliferation (cell index) (HCT116 colon cancer cell; HCT116, 6,000 cells/well, monitored 48 hours): potent, concentration-dependent inhibition; tumor growth in tumor-bearing mice (HCT116 tumor xenografts): inhibited tumor growth |
| COc1cc(C(=O)NS(=O)(=O)c2ccccc2C)ccc1Cc1cn(C)c2ccc(NC(=O)OC3CCCC3)cc12 [Zafirlukast] | 81 |  |  |  |
